Key:
[1] = Compound stability in complete RPMI with 10% human serum (mass spectrometry); format: physicochemical
Procedure: To assess compound stability, at day 1, 1 μM compound 103 or DMSO was added to complete RMPI containing 10% human serum and stored at either 4° C., 22° C. or 37° C. over an 11 day time period. Concentration of compound 103 was assessed at each indicated timepoint and storage temperature by mass spectrometry. Compound 103 was stable for at least 11 days in RPMI medium (FIG. 33).

[2] = test system: human tumor-infiltrating lymphocytes (TIL); test: Flow cytometry immunophenotyping of expanded TIL (lineage and memory markers); format: cell-based; conditions: for CD4 TCM CD62L+ CCR7+, percentage of total TIL cell number on day 28: TIL1 population, alone or with IL-2
Procedure: (§1) The plates were placed in a humidified 37° C. incubator with 5% CO2. Half of the medium was replaced every two days after culture initiation. […] Subsequently, half the media was replaced thrice weekly, cultures were split to maintain a cell density of 1×10^6 cells/mL. […] Mitochondrial markers including, Mitotracker, Mitoprobe, and 2-NBDG may also be used to assess differentiation and/or activation of cells.
T lymphocytes were defined based on lineage and differentiation marker expression according to the developmental model (Restifo, Blood, 124:476-477, 2014), as shown in Table 4.

OT-1 cells = test: In vivo frequency, persistence and exhaustion markers of transferred OT-1 cells (blood, spleen, tumor, FACS); set-up: species or system mouse
Procedure: Dead cells were removed (Miltenyi Biotec Cat #130-090-101) prior to transfer in vivo to monitor their trafficking and function in an EG.7 lymphoma model, which expresses the OVA antigen. Approximately five million cells per mouse were transferred to mice having an average tumor burden of about 70 mm^3. Following in vivo transfer of the OT-1 cells, antitumor response was monitored over time and the quality and quantity of immune response were assessed at various time points.
The expanded OT-1 cells were characterized by FACS analysis and transferred into E.G7-OVA mice, which bear ovalbumin (OVA) expressing tumors. Following in vivo transfer of expanded OT-1 cells, antitumor response was monitored over time and the quality and quantity of immune response was assessed at various time points. Analysis included FACS analysis on blood, tumor, and spleen samples. Analysis also included re-stimulation of splenocytes with OVA Class I peptide to evaluate the multifunctionality of the antigen-specific effector T cells.
On Day 0, E.G7-OVA cells were implanted into each mouse. On Day 5, approximately 5×10^6 in vitro expanded OT-1 cells were injected into the tail of each mouse. On Day 9, blood was analyzed by FACS. On Day 14, blood, tumor and spleen samples were analyzed by FACS. On Day 27, blood was analyzed by FACS. Tumor volume was measured approximately every five days through about 50 days post implant.
OT-1 cells were expanded according to the previous examples and administered to E.G7-OVA mice, which bear ovalbumin (OVA) expressing tumors. The cells were evaluated for their in vivo properties.
Expanded OT-1 cells were assessed in blood 4 days and 22 days after transfer.
Expanded OT-1 cells were assessed in tumors 4 days after transfer.

[3] = test system: human tumor-infiltrating lymphocytes (TIL); test: Expansion of TIL ex vivo from human tumor fragments (pre-REP, 24-well plate); format: cell-based; conditions: for Percentage of total cell number relative to IL-2 alone on day 17: alone or with IL-2 6000 IU/mL
Procedure: Samples of human ovarian and colon tumors were obtained from the Cooperative Human Tissue Network (CHTN, c/o Vanderbilt University Medical Center, Nashville, Tenn.). Solid tumor specimens were carefully dissected free of surrounding fatty and necrotic areas. The tumors were sliced into 8 mm^3 (2×2×2 mm^3) fragments under sterile conditions using a scalpel and a scalpel holder.
as §1

[4] = test system: TIL from ovarian, colon and breast cancer tissues; test: Phenotype of TIL expanded 14 days in GREX 10 flasks; format: cell-based, human; conditions: GREX 10 format, versus IL-2 alone (FIG. 26)
Procedure: TIL directly derived from fresh ovarian, colon and breast cancer tissues (fresh, n=7) obtained after 14 days' ex vivo culture of cancer tissue fragments were analyzed by flow cytometry.
TIL directly derived from fresh ovarian, colon and breast cancer tissues (fresh, n=7) obtained after 14 days' ex vivo culture of cancer tissue fragments were analyzed by flow cytometry. FIG. 26 provides FACS data showing percentages of central memory (CD45RO+CD8+) and effector memory (CD45RO+CD8-) phenotype among CD8+CD45RO+, respectively. FACS results were expressed as the mean SEM.

Structure (SMILES): C[C@@H]1CN(Cc2cc3c(c(C(F)(F)F)c2)CN(c2cccc(C4(Cc5nncn5C)COC4)c2)C3=O)CCC1(F)F [Compound 103]
- Stability in RPMI medium ([1]; 1 μM, complete RPMI with 10% human serum, 4° C., 22° C. or 37° C. (FIG. 33)): at least 11 days
- Stability at multiple temperatures (figure legend) ([1]; 4° C.-37° C., FIG. 33): stable at multiple temperatures (4° C.-37° C.) over an 11 day period
- CD4 TCM CD62L+ CCR7+, percentage of total TIL cell number on day 28 ([2]; 0.1 μM Cbl-i): 2.8%
- CD4 TCM CD62L+ CCR7+, percentage of total TIL cell number on day 28 ([2]; 1.0 μM Cbl-i): 8.0%
- Phenotype of human TIL expanded ex vivo ([2]; Table 5): TCM (CD45RO+, CD95+, CCR7+, CD62L+) or TEM (CD45RO+, CD95+, CCR7−, CD62L−) phenotype
- Expansion of CD8+ versus CD4+ T lymphocytes in TIL culture ([2]; tumor sample, FIG. 7): selectively expand CD8+ T lymphocytes
- Cells expressing stem markers TCF1+, PD-1+ and TIM-3+ (OT-1 cells; OT-1 cells after transfer): greater percentage of cells that expressed stem markers
- Frequency of OT-1 cells in total CD8+ T cells and CD45+ cells and persistence (OT-1 cells; blood, 4 or 9 days after transfer (FIG. 10)): higher frequency in total CD8+ T cells and CD45+ cells and in vivo persistence in the blood
- Frequency of OT-1 cells in total CD45+ cells and persistence (OT-1 cells; blood, 4 days and 22 days after transfer (FIGS. 13A, 13B)): higher frequency in total CD45+ cells and persisted longer than cells expanded with IL-2 alone
- Expression of exhaustion markers PD1, TIM3, LAG3 (OT-1 cells; tumor, versus IL-2 alone (FIGS. 14B, 14C)): lower level of expression of exhaustion markers
- Tumor infiltration, frequency of OT-1 cells in total CD45+ cells (OT-1 cells; tumors, 4 days after transfer (FIG. 14A)): increased ability to infiltrate the tumor
- Expansion of TIL in the absence of IL-2 ([3]; 0.1-10 μM Cbl inhibitor, no IL-2): considerable expansion of TIL
- Percentage of total cell number relative to IL-2 alone on day 17 ([3]; TIL1 (ovary), 0.1 μM Cbl-i): 90%
- Percentage of total cell number relative to IL-2 alone on day 17 ([3]; TIL1 (ovary), 1.0 μM Cbl-i): 75%
- Percentage of total cell number relative to IL-2 alone on day 17 ([3]; TIL1 (ovary), 10 μM Cbl-i): 60%
- Percentage of total cell number relative to IL-2 alone on day 17 ([3]; TIL2 (ovary), 0.1 μM Cbl-i): 30%
- Percentage of total cell number relative to IL-2 alone on day 17 ([3]; TIL2 (ovary), 1.0 μM Cbl-i): 26%
- Percentage of total cell number relative to IL-2 alone on day 17 ([3]; TIL2 (ovary), 10 μM Cbl-i): 22%
- Percentage of total cell number relative to IL-2 alone on day 17 ([3]; TIL3 (ovary), 0.1 μM Cbl-i): 30%
- Percentage of total cell number relative to IL-2 alone on day 17 ([3]; TIL3 (ovary), 1.0 μM Cbl-i): 43%
- Percentage of total cell number relative to IL-2 alone on day 17 ([3]; TIL3 (ovary), 10 μM Cbl-i): 16%
- Percentage of total cell number relative to IL-2 alone on day 17 ([3]; TIL4 (colon), 0.1 μM Cbl-i): 45%
- Percentage of total cell number relative to IL-2 alone on day 17 ([3]; TIL4 (colon), 1.0 μM Cbl-i): 58%
- Percentage of total cell number relative to IL-2 alone on day 17 ([3]; TIL4 (colon), 10 μM Cbl-i): 54%
- Percentage of total cell number relative to IL-2 alone on day 17 ([3]; TIL5 (ovary), 0.1 μM Cbl-i): 50%
- Percentage of total cell number relative to IL-2 alone on day 17 ([3]; TIL5 (ovary), 1.0 μM Cbl-i): 70%
- Percentage of total cell number relative to IL-2 alone on day 17 ([3]; TIL5 (ovary), 10 μM Cbl-i): 90%
- Percentage of total cell number relative to IL-2 alone on day 17 ([3]; TIL6 (ovary), 0.1 μM Cbl-i): 93%
- Percentage of total cell number relative to IL-2 alone on day 17 ([3]; TIL6 (ovary), 1.0 μM Cbl-i): 87%
- Percentage of total cell number relative to IL-2 alone on day 17 ([3]; TIL6 (ovary), 10 μM Cbl-i): 80%
- CD8+ central memory T cells [4]: increases CD8+ central memory T cells
